From PMC10158761, “Screening of an annexin‐A2‐targeted heptapeptide for pancreatic adenocarcinoma localization” (Molecular Oncology, 2022)
“Also recorded” adds a separate entry of the source. Primed or numbered codes have the meaning given here. Where no end group is shown, it is not given here. The star is where a group is joined. FITC = O=C1OC2(c3ccc(O)cc3Oc3cc(O)ccc32)c2ccc(NC(=S)*)cc21; PEG3′ = not defined here; Ahx = NCCCCCC(=O)O

Columns and labels:
[1] = tested on: PANC‐1 cells; test: Fluorescence imaging of PANC‐1 cells with labelled YW7 probes; format: cell-based, human; settings: 1, 2, 4 μM, 1 h; red filter 700–780 nm
Protocol: (§1) PANC‐1 and HPDE6‐C7 cells were seeded in six‐well plates at a density of 3 × 10^5 cells·mL^−1 and incubated overnight. The cells were incubated with 25 μM FITC‐YW7 for 30 min and 1 h for flow cytometry analysis of bound and internalized peptide, and cells were incubated with 1, 2, 4 μM FITC‐YW7 or Cy7‐YW7 for 1 h for fluorescence imaging of the live cells. Cells were washed with PBS three times and centrifuged for 5 min after 37 °C incubation. Si‐ANXA2‐ or si‐NC‐transfected PANC‐1 cells were detached with nonenzymatic dissociation solution from six‐well plates. 20 μM FITC‐YW7 was added to the suspended cells and incubated at 37 °C for 15 min. Cells were washed with PBS and centrifuged for 5 min repeating three times. The supernatant was then discarded and the cells were resuspended in PBS. Percent of total cells with fluorescent signals was determined by flow cytometry using a FACSCelesta flow cytometer (BD Biosciences, San Jose, CA, USA). Fluorescence intensity was quantified by an imaging system (Berthold LB983, Bad Wildbad, Sttugart, Germany).
(§2) Supplementary file MOL2-17-872-s002.tif: Fig. S3. Fluorescent‐labeled YW7 probes imaging in vitro. […] P values were determined using paired Student's t‐test. *P < 0.05 versus HPDE6‐C7 (Cy7‐YW7); ^# P < 0.05, ^## P < 0.01 versus PBS; ^$ P < 0.05, ^$$ P < 0.01 versus Cy7. […]

[2] = tested on: PANC‐1 and HPDE6‐C7 cells; test: Fluorescence imaging, PANC‐1 versus HPDE6‐C7 cells; format: cell-based, human
Protocol: as §1, §2

[3] = tested on: PANC‐1 xenograft tumors; test: In vivo NIRF imaging of PANC‐1 xenograft mice; set-up: species or system mouse (BALB/c nude)
From the text: During imaging, mice were anesthetized with 2% isoflurane.

[4] = tested on: ANXA2 (purified recombinant); test: ANXA2 affinity column binding with LC/MS detection; settings: ANXA2 0.7 mg on CNBr‐activated Sepharose; 1 mg YW7; 1 h at 4 °C; UPLC‐G2XS‐QTOF/MS
Protocol: To prepare the ANXA2‐immobilized affinity column, CNBr‐activated Sepharose (GE Healthcare Bio‐Sciences AB, Uppsala, Sweden) was swelled by 1 mM HCl and coupling buffer. Purified recombinant ANXA2 of 0.7 mg was loaded onto the resin and incubated at 4 °C overnight. After blocking with ethanolamine, the resin was washed with 50 mM Tris–HCl (pH 8.0) and 50 mM Glycine‐0.5 M NaCl (pH 4.0) buffers alternatively for three rounds. Then, the resin was washed with PBS and 1 mg YW7 dissolved in DEPC was added to the ANXA2‐loaded resin. After binding for 1 h at 4 °C, the resin was washed again with 50 mM Tris–HCl (pH 8.0) and 50 mM Glycine‐0.5 M NaCl (pH 4.0) buffers. Eluents were eventually mixed with 50% acetonitrile and analyzed by UPLC‐G2XS‐QTOF/MS (Waters, Milford, MA, USA).

[5] = tested on: ANXA2; test: siRNA knockdown of ANXA2 in PANC‐1 cells (western blotting, qPCR); format: cell-based, human; settings: 48 h after transfection, lipofectamine 3000; n = 3
Protocol: ANXA2 expression in human cells and patients' tissues was determined by western blotting. Cells were lysed on ice in RIPA Lysis Buffer (Beyotime, Shanghai, China) with 1% PMSF for 30 min. Fresh tissues were suspended in RIPA Lysis Buffer with 1% PMSF, homogenized for 2 min, and then lysed on ice for another 30 min. The supernatant was collected and the protein concentration was determined after centrifuging for 10 min at 8000 g . The protein concentration was detected by BCA Protein Assay Kit (Beyotime). Proteins extracts were separated by 12% SDS/PAGE gel and then transferred to the PVDF membranes. Next, the membranes were blocked with 5% skimmed milk powder at room temperature for 1 h. Rabbit primary antibodies specific to ANXA2 (1 : 1000; Cell Signaling Technology, Billerica, CA, USA; #8235S) were used to incubate the membranes at 4 °C overnight. Anti‐β‐tubulin mouse primary antibodies (1 : 5000; EarthOx Life Science, Millbrae, CA, USA; E021040‐01) were applied as a loading control. […] The band density was quantified by IMAGEJ software (National Institutes of Health, Bethesda, MD, USA).
Small interfering RNA (primer sequences: forward 5′‐[…]‐3′ and reverse 5′‐[…]‐3′) was used to downregulate the expression of ANXA2 (si‐ANXA2). […] Knockdown efficiency was evaluated by western blotting and quantitative real‐time PCR. […]

[6] = target: T1, GST-fused ANXA2 recombinant protein (UniProt P07355 1-339); test: MST; FITC-YW7 at constant concentration, unlabeled ANXA2 diluted in a gradient; MST buffer with 0.05% Tween-20; Monolith NT.115, standard capillaries; apparent KD; settings: both partners purified
T1 construct: product of 62 kD with GST; No cleavage of GST is described; The size of 62 kD would fit whole ANXA2 (36 kD) plus GST; also called GST-ANXA2; annexin A2; source: E. coli BL21 (DE3), purified (GST tag purification resin)
T1 sequence (P07355 whole entry, the tested form may be a part): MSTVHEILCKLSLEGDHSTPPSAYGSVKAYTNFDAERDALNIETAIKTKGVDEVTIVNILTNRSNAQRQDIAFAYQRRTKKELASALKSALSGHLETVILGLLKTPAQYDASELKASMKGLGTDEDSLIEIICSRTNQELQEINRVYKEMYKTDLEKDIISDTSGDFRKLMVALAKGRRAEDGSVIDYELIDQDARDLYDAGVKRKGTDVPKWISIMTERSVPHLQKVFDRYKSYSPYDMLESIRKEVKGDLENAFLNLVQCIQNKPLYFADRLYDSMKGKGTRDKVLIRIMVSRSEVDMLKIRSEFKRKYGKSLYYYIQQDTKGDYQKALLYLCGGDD

[7] = target: T2, ANXA2 on pancreatic cells (human (endogenous in PANC-1 and …, UniProt P07355 1-339)); test: other fluorescence titration; PANC-1 cells suspended in FITC-YW7 (0-1.5 μM), 37 °C, 30 min; washed with PBS; fluorescence of the cells read in a plate reader (490/518 nm); apparent Kd; settings: one partner purified
T2 construct: annexin A2, endogenous in the human pancreatic cancer cell line PANC-1 and the normal human pancreatic ductal cell line HPDE6-C7; which cell line was used is told in each assay's format; also called annexin A2; source: endogenous, on PANC-1 cells; endogenous, on HPDE6-C7 cells
T2 sequence (P07355 whole entry): as the sequence (P07355 whole entry, the tested form may be a part) above

For “Cy7‐YW7: Cy7 linked to the N terminal of YW7 peptide via spacer of PEG3; NIRF probe ({Cy7-PEG3′}-YWRGVYN)”, the “internalization by PANC‐1 cells, concentration dependence” value [1] was “preferred to be internalized by PANC‐1 cells in a dose‐dependent manner”, the “fluorescence signal, PANC‐1 versus HPDE6‐C7” value ([2]; 4 μM in PBS) was “stronger fluorescence signal of Cy7‐YW7 was detected after internalization into PANC‐1 cells compared to HPDE6‐C7” and the “uptake in PANC‐1 compared to HPDE6‐C7 cells” value ([2]; summary statement of abstract) was “significantly higher uptake in PANC‐1 cells”. For the same molecule, the “TBR, as quoted in discussion” value ([3]; 8 nmol i.v.) was ~ 2.7, the “earliest time of significant tumor‐to‐background contrast” value ([3]; 8 nmol i.v.) was 1 h and the “tumor‐to‐background ratio (TBR)” value ([3]; 8 nmol i.v., 2.5 h after injection, n = 4, mean ± SD, P < 0.05 Cy7‐YW7 vs Cy7) was 2.7 ± 0.6. For the same molecule, the “tumor fluorescence / contrast” value ([3]; 8 nmol i.v., Cy7‐YW7 versus Cy7, n = 4) was “stronger fluorescence signals in tumor tissues; also recorded: higher than Cy7; also recorded: enhanced tumor sensitivity and specificity from 1 h after injection”, the “time of highest TBR after injection” value ([3]; 8 nmol i.v., images at 0, 1, 2, 2.5, 3 h) was 2.5 h and the “TBR compared to Cy7 alone” value ([3]; intravenous injection, in abstract) was ~ 2.7 ‐fold.

YWRGVYN [YW7] was tested, and the “binding to ANXA2 column” value [4] was “eluted from ANXA2‐loading column after incubation with ANXA2 recombinant protein for 1 h and identified”.

For “si‐ANXA2: Small interfering RNA, forward 5′‐AGACCAAAGGUGUGGAUGAUU‐3′ and reverse 5′‐UCAUCCACACCUUUGGUCUUU‐3′ (chemistry not fully specified)”, the “ANXA2 protein and mRNA level after knockdown” value [5] was “Downregulated ANXA2 relative protein (D, E) and mRNA (F) levels”.

B1: FITC-labeled YW7 (peptide)
peptide: {FITC-Ahx}-YWRGVYN
notes: heptapeptide YW7 selected from the Ph.D.-7 phage display library; also called FITC-YW7; source: synthetic peptide, Sangon Biotech
With B1 the Kd [6] was 12 µM and the Kd [7] was 0.0866 µM.
